Results as given in patent US11000601B2, “Conjugated biological molecules, pharmaceutical compositions and methods” (OBI Pharma, Inc., priority 2016, dated 2021).
“And” between values parts separate entries of the source, which are not always exact repeats. Equal values may be shown once. Square brackets hold non-standard residues; d marks the D form. Peptide text beside a SMILES is read from it. * marks the point of attachment. Dolaproine = CO[C@@H]([C@@H]1CCCN1)[C@@H](C)C(=O)O; Dil = CC[C@H](C)[C@H](NC)[C@@H](CC(=O)O)OC; X1 = C[C@@H](N*)[C@@H](O)c1ccccc1; NMeV = CN[C@H](C(=O)O)C(C)C

What was measured:
[1] = Body weight, mortality and signs of overt toxicity in MCF-7 implanted female nude (nu/nu) mice; assay type: in vivo, mouse; details: for Body Weight (g), individual animals No. 1-6: single animal; for Body Weight (g), individual mice: individual mice No. 1-6
Description: In a xenograft tumor model of human breast adenocarcinoma, MCF-7 (ATCC HTB-22) cells were subcutaneously (SC) implanted (2.0×10^7 cells in 1:1 matrigel/media mixture at 0.2 mL/mouse) into the right flank of female athymic (nu/nu) nude mice. Supplemental injections of estradiol cyclopentyl propionate (100 μg/mouse) were administered subcutaneously between the scapulae twice weekly, from one week prior to cell implantation to study completion. Tumor-implanted mice were divided into eleven treatment groups, each group containing six animals, and test agent administrations were initiated one day after cell implantation (denoted as Day 1). 3.1 Test Substances and Dosing Pattern
Two control groups received intravenous injections of vehicle (25 mM Sodium Citrate, pH 6.5+100 mM NaCl) once weekly for either six weeks (group 1) or two weeks (group 2).
Female (nu/nu) nude mice aged 6-7 weeks obtained from BioLasco Taiwan (under Charles River Laboratories Licensee) were used. The animals were housed in individually ventilated cages (IVG, 36 Mini Isolator System). The allocation for 3-5 animals was 27×20×14 in cm. All animals were maintained in a hygienic environment under controlled temperature (20-24° C.) and humidity (30-70%) with 12-hour light/dark cycle. Free access to standard lab diet (Oriental Yeast Co., Ltd., Japan) and autoclaved tap water were granted. All aspects of this work including housing, experimentation, and animal disposal were performed in general accordance with the “Guide for the Care and Use of Laboratory Animals: Eighth Edition” (National Academies Press, Washington, D.C., 2011) in our AAALAC-accredited laboratory animal facility. In addition, the animal care and use protocol was reviewed and approved by the IACUC at Eurofins Panlabs Taiwan, Ltd.
The tumor volumes, body weights, mortality, and signs of overt toxicity were monitored and recorded twice weekly for 77 days. Tumor volume (mm^3) was calculated according to the formula for a prolate ellipsoid: length (mm)×[width (mm)]^2×0.5. Tumor growth inhibition was calculated as T/C (treatment/control)×100%. A T/C value≤42% was considered significant anti-tumor activity. Two-way ANOVA followed by Bonferroni test was used to ascertain the statistical significance of groups compared to respective vehicle control (*p<0.05).

[2] = Body weight, mortality and signs of overt toxicity in NCI-H526 implanted female nu/nu mice; assay type: in vivo, mouse; details: for Body Weight (g), Mean: group mean; for Body Weight (g), individual animal No. 1-8: single mice; for Body Weight / Body Weight (g): individual mice, 0.191 mg/kg
Description: In a xenograft tumor model of human small cell lung cancer, viable NCI-H526 stage E carcinoma; variant small cell lung cancer cells (ATCC CRL-5811), were subcutaneously (SC) implanted (1×10^6 cells with matrigel (1:0.8) in 0.2 mL/mouse) into the right flank of female nu/nu mice. Tumor implanted mice were divided into five treatment groups, each group containing eight animals, and test agent administrations were initiated one day after cell implantation (denoted as Day 1).
Female nu/nu nude, aged 6-7 weeks, were obtained from BioLasco Taiwan (under Charles River Laboratories Licensee) and used. The animals were housed in individually ventilated cages (IVC, 36 Mini Isolator system). The allocation for 5 animals was 27×20×14 in cm. All animals were maintained in a hygienic environment under controlled temperature (20-24° C.) and humidity (30-70%) with 12-hour light/dark cycle. Free access to standard lab diet [MFG (Oriental Yeast Co., Ltd., Japan)] and autoclaved tap water were granted. All aspects of this work including housing, experimentation, and animal disposal were performed in general accordance with the “Guide for the Care and Use of Laboratory Animals: Eighth Edition” (National Academies Press, Washington, D.C., 2011) in our AAALAC-accredited laboratory animal facility. In addition, the animal care and use protocol was reviewed and approved by the IACUC at Eurofins Panlabs Taiwan, Ltd.
The tumor volumes, body weights, mortality, and signs of overt toxicity were monitored and recorded twice weekly for 45 days. Tumor growth inhibition was calculated as T/C (treatment/control)×100%. A T/C value≤42% compared to that of the vehicle control group was considered significant anti-tumor activity. Two-way ANOVA followed by Bonferroni test was used to ascertain the statistically significant significance of groups compared to respective vehicle control (*p<0.05).

[3] = Day 1, NCI-H526 xenograft, female nu/nu mice, OBI-999/OBI-888 10 mg/kg IV, MMAE 0.191 mg/kg IP, once weekly x 4
[4] = Day 4, NCI-H526 xenograft, female nu/nu mice, OBI-999/OBI-888 10 mg/kg IV, MMAE 0.191 mg/kg IP, once weekly x 4
[5] = Day 15, NCI-H526 xenograft, female nu/nu mice, OBI-999/OBI-888 10 mg/kg IV, MMAE 0.191 mg/kg IP, once weekly x 4
[6] = Day 18, NCI-H526 xenograft, female nu/nu mice, OBI-999/OBI-888 10 mg/kg IV, MMAE 0.191 mg/kg IP, once weekly x 4
[7] = Day 31, NCI-H526 xenograft, female nu/nu mice, OBI-999/OBI-888 10 mg/kg IV, MMAE 0.191 mg/kg IP, once weekly x 4
[8] = Day 39, NCI-H526 xenograft, female nu/nu mice, OBI-999/OBI-888 10 mg/kg IV, MMAE 0.191 mg/kg IP, once weekly x 4
[9] = Gr. 8, 0.191 mg/kg × 4 IP once weekly, Day 57
[10] = Gr. 8, 0.191 mg/kg × 4 IP once weekly, Day 60
[11] = Gr. 8, 0.191 mg/kg × 4 IP once weekly, Day 64
[12] = Gr. 8, 0.191 mg/kg × 4 IP once weekly, Day 67
[13] = Gr. 8, 0.191 mg/kg × 4 IP once weekly, Day 70
[14] = Gr. 8, 0.191 mg/kg × 4 IP once weekly, Day 74
[15] = Gr. 8, 0.191 mg/kg × 4 IP once weekly, Day 78
[16] = Gr. 8, 0.191 mg/kg × 4 IP once weekly, Day 81
[17] = Gr. 8, 0.191 mg/kg × 4 IP once weekly, Day 85

## CC[C@H](C)[C@@H]([C@@H](CC(=O)N1CCC[C@H]1[C@H](OC)[C@@H](C)C(=O)N[C@H](C)[C@@H](O)c1ccccc1)OC)N(C)C(=O)[C@@H](NC(=O)[C@@H](NC)C(C)C)C(C)C [MMAE, monomethyl auristatin E] (H-[NMeV]V[Dil][Dolaproine]-X1)
[1]; 0.057 mg/kg × 6, IV once weekly, Day 53
  Body Weight (g), individual animals No. 1-6: 26 g (3×) and 28 g and 22 g and 24 g
[1]; 0.057 mg/kg × 6, IV once weekly, Day 56
  Body Weight (g), individual animals No. 1-6: 24 g and 27 g and 26 g (2×) and 23 g and 25 g
[1]; 0.057 mg/kg × 6, IV once weekly, Day 60
  Body Weight (g), individual animals No. 1-6: 27 g (3×) and 28 g and 24 g and 26 g
[1]; 0.057 mg/kg × 6, IV once weekly, Day 63
  Body Weight (g), individual animals No. 1-6: 27 g (2×) and 26 g (2×) and 29 g and 24 g
[1]; 0.057 mg/kg × 6, IV once weekly, Day 67
  Body Weight (g), individual animals No. 1-6: 27 g (2×) and 28 g (2×) and 26 g and 25 g
[1]; 0.057 mg/kg × 6, IV once weekly, Day 70
  Body Weight (g), individual animals No. 1-6: 27 g and 28 g (2×) and 25 g (2×) and 26 g
[1]; 0.057 mg/kg × 6, IV once weekly, Day 74, group mean
  Body Weight (g), Mean: 26.7 g
[1]; 0.057 mg/kg × 6, IV once weekly, Day 74
  Body Weight (g), individual animals No. 1-6: 27 g (2×) and 29 g and 24 g and 25 g and 28 g
[1]; 0.057 mg/kg × 6, IV once weekly, Day 77
  Body Weight (g), individual animals No. 1-6: 28 g and 29 g and 23 g and 27 g (2×) and 24 g
[1]; 0.057 mg/kg × 6 IV once weekly, Day 1
  Body Weight (g), individual mice: 23 g (2×) and 22 g (2×) and 24 g and 21 g
[1]; 0.057 mg/kg × 6 IV once weekly, Day 1, mean of 6 mice
  Body Weight (g), Mean: 22.5 g
[1]; 0.057 mg/kg × 6 IV once weekly, Day 5
  Body Weight (g), individual mice: 24 g (3×) and 22 g (3×)
[1]; 0.057 mg/kg × 6 IV once weekly, Day 5, mean of 6 mice
  Body Weight (g), Mean: 23.0 g
[1]; 0.057 mg/kg × 6 IV once weekly, Day 8
  Body Weight (g), individual mice: 26 g and 23 g (2×) and 24 g (2×) and 25 g
[1]; 0.057 mg/kg × 6 IV once weekly, Day 8, mean of 6 mice
  Body Weight (g), Mean: 24.2 g
[1]; 0.057 mg/kg × 6 IV once weekly, Day 12
  Body Weight (g), individual mice: 26 g and 24 g (2×) and 25 g (3×)
[1]; 0.057 mg/kg × 6 IV once weekly, Day 15
  Body Weight (g), individual mice: 27 g and 25 g (4×) and 26 g
[1]; 0.057 mg/kg × 6 IV once weekly, Day 19
  Body Weight (g), individual mice: 26 g and 24 g and 25 g (4×)
[1]; 0.057 mg/kg × 6 IV once weekly, Day 19, mean of 6 mice
  Body Weight (g), Mean: 25.0 g
[1]; 0.057 mg/kg × 6 IV once weekly, Day 22
  Body Weight (g), individual mice: 27 g and 25 g (2×) and 24 g and 26 g (2×)
[1]; 0.057 mg/kg × 6 IV once weekly, Day 26
  Body Weight (g), individual mice: 27 g and 25 g (2×) and 24 g (2×) and 26 g
[2]; [3]
  Body Weight (g), Mean: 23.9 g
  Body Weight (g), individual animal No. 1-8: 24 g (3×) and 25 g and 26 g and 23 g (2×) and 22 g
[2]; [4]
  Body Weight (g), Mean: 23.6 g
  Body Weight (g), individual animal No. 1-8: 22 g and 25 g and 27 g and 21 g and 23 g (2×) and 24 g (2×)
[2]; Day 8, NCI-H526 xenograft, female nu/nu mice, OBI-999/OBI-888 10 mg/kg IV, MMAE 0.191 mg/kg IP, once weekly x 4
  Body Weight (g), individual animal No. 1-8: 24 g (2×) and 26 g and 28 g and 21 g and 25 g (2×) and 23 g
[2]; Day 11, NCI-H526 xenograft, female nu/nu mice, OBI-999/OBI-888 10 mg/kg IV, MMAE 0.191 mg/kg IP, once weekly x 4
  Body Weight (g), individual animal No. 1-8: 24 g (3×) and 28 g (2×) and 23 g (2×) and 25 g
[2]; [5]
  Body Weight (g), Mean: 25.4 g
  Body Weight (g), individual animal No. 1-8: 25 g (2×) and 28 g (2×) and 24 g (2×) and 23 g and 26 g
[2]; [6]
  Body Weight (g), Mean: 25.4 g
  Body Weight (g), individual animal No. 1-8: 25 g (3×) and 28 g (2×) and 24 g (3×)
[2]; Day 22, NCI-H526 xenograft, female nu/nu mice, OBI-999/OBI-888 10 mg/kg IV, MMAE 0.191 mg/kg IP, once weekly x 4
  Body Weight (g), individual animal No. 1-8: 24 g (2×) and 28 g (2×) and 25 g (4×)
[2]; Day 25, NCI-H526 xenograft, female nu/nu mice, OBI-999/OBI-888 10 mg/kg IV, MMAE 0.191 mg/kg IP, once weekly x 4
  Body Weight (g), individual animal No. 1-8: 26 g (3×) and 30 g and 29 g and 25 g (3×)
[2]; Day 29, NCI-H526 xenograft, female nu/nu mice, OBI-999/OBI-888 10 mg/kg IV, MMAE 0.191 mg/kg IP, once weekly x 4
  Body Weight (g), individual animal No. 1-8: 25 g and 32 g and 31 g and 26 g (2×) and 27 g (3×)
[2]; [7]
  Body Weight (g), Mean: 27.8 g
  Body Weight (g), individual animal No. 1-8: 25 g and 32 g (2×) and 26 g (2×) and 27 g (3×)
[2]; Day 36, NCI-H526 xenograft, female nu/nu mice, OBI-999/OBI-888 10 mg/kg IV, MMAE 0.191 mg/kg IP, once weekly x 4
  Body Weight (g), individual animal No. 1-8: 26 g (2×) and 33 g (2×) and 28 g and 27 g and 29 g (2×)
[2]; [8]
  Body Weight (g), Mean: 30.3 g
  Body Weight (g), individual animal No. 1-8: 27 g (3×) and 38 g and 34 g and 30 g (2×) and 29 g
[2]; [9]
  Body Weight: 27 g (4×) and 24 g and 26 g
  Body Weight (g): died
[2]; [10]
  Body Weight: 27 g (2×) and 25 g and 28 g (2×) and 26 g
  Body Weight (g): died
[2]; [11]
  Body Weight (g), Mean: 26.7 g
  Body Weight: 27 g (4×) and 24 g and 28 g
  Body Weight (g): died
[2]; [12]
  Body Weight: 27 g (2×) and 25 g and 28 g (3×)
  Body Weight (g): died
[2]; [13]
  Body Weight: 26 g (2×) and 25 g and 27 g (3×)
  Body Weight (g): died
[2]; [14]
  Body Weight: 27 g and 24 g (2×) and 28 g (3×)
  Body Weight (g): died
[2]; [15]
  Body Weight: 28 g (4×) and 25 g (2×)
  Body Weight (g): died
[2]; [16]
  Body Weight: 28 g (3×) and 25 g and 27 g and 24 g
  Body Weight (g): died
[2]; [17]
  Body Weight: 27 g and 25 g and 28 g (2×) and 29 g and 23 g
  Body Weight (g): died
[2]; Gr. 8, 0.191 mg/kg × 4 IP once weekly, Day 100
  Body Weight (g), Mean: 27.9 g
